Measured values taken from publication PMC5453487, “Targeting YAP/TAZ-TEAD protein-protein interactions using fragment-based and computational modeling approaches” (PLoS ONE, 2017).

Target: mouse TEAD4 (mTEAD4) (Mus musculus, UniProt Q62296)
Test: X-ray co-crystal structure ([…] Å), ITC; also thermal shift assay and MST ([…])
Format: binding

Sequence of mouse TEAD4 (mTEAD4) (Q62296 210-427): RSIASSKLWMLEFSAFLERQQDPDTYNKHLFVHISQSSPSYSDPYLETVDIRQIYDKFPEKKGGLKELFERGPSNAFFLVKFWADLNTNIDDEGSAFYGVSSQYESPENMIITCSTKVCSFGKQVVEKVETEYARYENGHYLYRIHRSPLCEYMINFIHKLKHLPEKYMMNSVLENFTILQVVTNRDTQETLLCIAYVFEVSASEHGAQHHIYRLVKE

Kd: ~300 µM
Compound: O=C(O)C(c1ccccc1)n1cccc1 (stereo not shown) [compound 1, fragment 1]
